# Test system: OVCAR-8 complex spheroid, growth inhibition
# Experiment: Anticancer human tumor OVCAR-8 cell line growth inhibition [Asc];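 further: spheroids exposed to agents for 7 days before readout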;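 on viability, T/C: percent viability relative to DMSO vehicle wells taken as 100%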
# Settings: for IC50: curve of first compound; for viability, T/C: stronger effect = lower value
# How it was run: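 Stromal components (HUVEC and hMSC) are co-assembled with the cancer cells into multicellular spheroids. Drugs are then added singly or paired, at concentrations falling by half-log increments from a clinically achievable maximum, capped at 10 microM without known Cmax.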
# [1] = second compound 0.00949 µM, first compound 0.0316 µM
# [2] = second compound 0.00949 µM, first compound 0.1 µM
# [3] = second compound 0.00949 µM, first compound 0.316 µM
# [4] = second compound 0.00949 µM, first compound 1 µM
# [5] = second compound 0.00949 µM, first compound 3.16 µM
# [6] = second compound 0.00949 µM, first compound 10 µM
# [7] = second compound 0.03 µM, first compound 0.0316 µM
# [8] = second compound 0.03 µM, first compound 0.1 µM
# [9] = second compound 0.03 µM, first compound 0.316 µM
# [10] = second compound 0.03 µM, first compound 1 µM
# [11] = second compound 0.03 µM, first compound 3.16 µM
# [12] = second compound 0.03 µM, first compound 10 µM
# [13] = second compound 0.0949 µM, first compound 0.0316 µM
# [14] = second compound 0.0949 µM, first compound 0.1 µM
# [15] = second compound 0.0949 µM, first compound 0.316 µM
# [16] = second compound 0.0949 µM, first compound 1 µM
# [17] = second compound 0.0949 µM, first compound 3.16 µM
# [18] = second compound 0.0949 µM, first compound 10 µM
# [19] = second compound 0.3 µM, first compound 0.0316 µM
# [20] = second compound 0.3 µM, first compound 0.1 µM
# [21] = second compound 0.3 µM, first compound 0.316 µM
# [22] = second compound 0.3 µM, first compound 1 µM
# [23] = second compound 0.3 µM, first compound 3.16 µM
# [24] = second compound 0.3 µM, first compound 10 µM
# [25] = second compound 0.949 µM, first compound 0.0316 µM
# [26] = second compound 0.949 µM, first compound 0.1 µM
# [27] = second compound 0.949 µM, first compound 0.316 µM
# [28] = second compound 0.949 µM, first compound 1 µM
# [29] = second compound 0.949 µM, first compound 3.16 µM
# [30] = second compound 0.949 µM, first compound 10 µM
# [31] = second compound 3 µM, first compound 0.0316 µM
# [32] = second compound 3 µM, first compound 0.1 µM
# [33] = second compound 3 µM, first compound 0.316 µM
# [34] = second compound 3 µM, first compound 1 µM
# [35] = second compound 3 µM, first compound 3.16 µM
# [36] = second compound 3 µM, first compound 10 µM
structure (smiles),measurement,setting,value
C=C(F)C(=O)N1CCN(c2nc(OCC3CCCN3C)nc3c2CCN(c2cccc4cccc(Cl)c24)C3)CC1CC#N (stereo unspecified) + CCN1C(C(=O)NC23CCC(C(=O)O)(CC2)CC3)C(c2cccc(Cl)c2F)C2(C(=O)Nc3cc(Cl)ccc32)C12CCCCC2,IC50,second compound 0.00949 µM,2580 nM
same,IC50,second compound 0.03 µM,2500 nM
same,IC50,second compound 0.0949 µM,2720 nM
same,IC50,second compound 0.3 µM,2660 nM
same,IC50,second compound 0.949 µM,2490 nM
same,IC50,second compound 3 µM,2740 nM
same,"viability, T/C",[1],115%
same,"viability, T/C",[2],86.5%
same,"viability, T/C",[3],103%
same,"viability, T/C",[4],119%
same,"viability, T/C",[5],38%
same,"viability, T/C",[6],1.01%
same,"viability, T/C",[7],96.6%
same,"viability, T/C",[8],90.2%
same,"viability, T/C",[9],92.3%
same,"viability, T/C",[10],107%
same,"viability, T/C",[11],38%
same,"viability, T/C",[12],0.56%
same,"viability, T/C",[13],93.1%
same,"viability, T/C",[14],98.6%
same,"viability, T/C",[15],93.9%
same,"viability, T/C",[16],116%
same,"viability, T/C",[17],42.3%
same,"viability, T/C",[18],0.29%
same,"viability, T/C",[19],83.8%
same,"viability, T/C",[20],103%
same,"viability, T/C",[21],105%
same,"viability, T/C",[22],121%
same,"viability, T/C",[23],40.6%
same,"viability, T/C",[24],0.7%
same,"viability, T/C",[25],90.3%
same,"viability, T/C",[26],96.8%
same,"viability, T/C",[27],102%
same,"viability, T/C",[28],126%
same,"viability, T/C",[29],35.9%
same,"viability, T/C",[30],1.05%
same,"viability, T/C",[31],111%
same,"viability, T/C",[32],97.3%
same,"viability, T/C",[33],140%
same,"viability, T/C",[34],128%
same,"viability, T/C",[35],40.3%
same,"viability, T/C",[36],0.52%
C=CC(=O)N1CCN(c2nc(=O)n(-c3c(C)ccnc3C(C)C)c3nc(-c4c(O)cccc4F)c(F)cc23)C(C)C1 (stereo unspecified) + CCN1C(C(=O)NC23CCC(C(=O)O)(CC2)CC3)C(c2cccc(Cl)c2F)C2(C(=O)Nc3cc(Cl)ccc32)C12CCCCC2,IC50,second compound 0.00949 µM,> 10000 nM
same,IC50,second compound 0.03 µM,> 10000 nM
same,IC50,second compound 0.0949 µM,> 10000 nM
same,IC50,second compound 0.3 µM,> 10000 nM
same,IC50,second compound 0.949 µM,> 10000 nM
same,IC50,second compound 3 µM,> 10000 nM
same,"viability, T/C",[1],94.2%
same,"viability, T/C",[2],89.9%
same,"viability, T/C",[3],94.7%
same,"viability, T/C",[4],81.7%
same,"viability, T/C",[5],89.3%
same,"viability, T/C",[6],100%
same,"viability, T/C",[7],101%
same,"viability, T/C",[8],90.6%
same,"viability, T/C",[9],85.3%
same,"viability, T/C",[10],76.8%
same,"viability, T/C",[11],102%
same,"viability, T/C",[12],102%
same,"viability, T/C",[13],101%
same,"viability, T/C",[14],78.6%
same,"viability, T/C",[15],88%
same,"viability, T/C",[16],74.2%
same,"viability, T/C",[17],86.1%
same,"viability, T/C",[18],116%
same,"viability, T/C",[19],88%
same,"viability, T/C",[20],96.7%
same,"viability, T/C",[21],86.3%
same,"viability, T/C",[22],93.7%
same,"viability, T/C",[23],88.2%
same,"viability, T/C",[24],106%
same,"viability, T/C",[25],87.3%
same,"viability, T/C",[26],103%
same,"viability, T/C",[27],102%
same,"viability, T/C",[28],90.8%
same,"viability, T/C",[29],104%
same,"viability, T/C",[30],115%
same,"viability, T/C",[31],124%
same,"viability, T/C",[32],103%
same,"viability, T/C",[33],101%
same,"viability, T/C",[34],106%
same,"viability, T/C",[35],120%
same,"viability, T/C",[36],137%
CNC(C)C(=O)NC1CN(S(=O)(=O)c2cccc(S(=O)(=O)N3CCC4CCC(C(=O)NC(c5ccccc5)c5ccccc5)N4C(=O)C(NC(=O)C(C)NC)C3)c2)CCC2CCC(C(=O)NC(c3ccccc3)c3ccccc3)N2C1=O (stereo unspecified) + CCN1C(C(=O)NC23CCC(C(=O)O)(CC2)CC3)C(c2cccc(Cl)c2F)C2(C(=O)Nc3cc(Cl)ccc32)C12CCCCC2,IC50,second compound 0.00949 µM,> 1000 nM
same,IC50,second compound 0.03 µM,> 1000 nM
same,IC50,second compound 0.0949 µM,> 1000 nM
same,IC50,second compound 0.3 µM,> 1000 nM
same,IC50,second compound 0.949 µM,> 1000 nM
same,IC50,second compound 3 µM,> 1000 nM
same,"viability, T/C","second compound 0.00949 µM, first compound 0.00316 µM",100%
same,"viability, T/C","second compound 0.00949 µM, first compound 0.01 µM",83.8%
same,"viability, T/C",[1],91.8%
same,"viability, T/C",[2],76.4%
same,"viability, T/C",[3],75.4%
same,"viability, T/C",[4],71.3%
same,"viability, T/C","second compound 0.03 µM, first compound 0.00316 µM",107%
same,"viability, T/C","second compound 0.03 µM, first compound 0.01 µM",99.3%
same,"viability, T/C",[7],94%
same,"viability, T/C",[8],88.8%
same,"viability, T/C",[9],75%
same,"viability, T/C",[10],83.3%
same,"viability, T/C","second compound 0.0949 µM, first compound 0.00316 µM",94.7%
same,"viability, T/C","second compound 0.0949 µM, first compound 0.01 µM",98.1%
same,"viability, T/C",[13],90.9%
same,"viability, T/C",[14],79%
same,"viability, T/C",[15],74.4%
same,"viability, T/C",[16],63.6%
same,"viability, T/C","second compound 0.3 µM, first compound 0.00316 µM",112%
same,"viability, T/C","second compound 0.3 µM, first compound 0.01 µM",101%
same,"viability, T/C",[19],86.7%
same,"viability, T/C",[20],65.9%
same,"viability, T/C",[21],68.6%
same,"viability, T/C",[22],70.1%
same,"viability, T/C","second compound 0.949 µM, first compound 0.00316 µM",91.7%
same,"viability, T/C","second compound 0.949 µM, first compound 0.01 µM",89.1%
same,"viability, T/C",[25],99%
same,"viability, T/C",[26],76.7%
same,"viability, T/C",[27],64.3%
same,"viability, T/C",[28],66.8%
same,"viability, T/C","second compound 3 µM, first compound 0.00316 µM",118%
same,"viability, T/C","second compound 3 µM, first compound 0.01 µM",102%
same,"viability, T/C",[31],115%
same,"viability, T/C",[32],88%
same,"viability, T/C",[33],84.5%
same,"viability, T/C",[34],88%
